Experimental data reported in patent US11131674B2, “Microarray compositions and methods of their use” (ADEPTRIX CORP., priority 2013, dated 2021).

Columns and labels:
MCF-7 cell line cells [1] = assay: Whole cell MALDI TOF MS imaging of live cell microarray reacted with apoptosis-inducing compounds; format: cell-based, human; settings: MCF-7 cells, 24 hours; etoposide 1 mM, camptothecin 10 μM, andrographolide 100 μM, 500 μM and 1 mM; FIG. 39E
Protocol: The live cell microarray was fabricated as follows: a sterile 12-well silicone gasket was affixed to a top surface of a sterile APEX™ glass microwell plate, as schematically depicted in FIG. 15A and 1×DMEM cell culture medium supplemented with 10% FBS and 1% of Penicillin/Streptomycin was dispensed into each well of the fabricated 12-chamber cell culture device. Several hundred of MCF-7 cell line cells were seeded into each of the 12 wells and the cells were grown to […] density on the microwell plate within 48 hrs using a standard cell culture protocol. The fabricated live cell microarray thus comprised 12 reactive sites defined by the dimensions of the silicone gasket, each reactive site measuring approximately 7.5 mm×7.5 mm and containing approximately 5×10^5 live cells.
The live cell microarray fabricated as described in the previous Example was utilized to measure response of the MCF-7 cell line cells to several apoptosis-inducing compounds, which included etoposide, camptothecin and andrographolide. In addition, the live cell microarray was utilized to measure response of the MCF-7 cells to the same compound (andrographolide) provided in three different concentrations.
Stock solutions of the three compounds listed above were prepared in DMSO and stored at 4° C. or at −20° C. The compounds were diluted with the DMEM cell culture medium to the final concentrations of 1 mM (etoposide), 10 μM (camptothecin) and 100 μM, 500 μM and 1 mM (andrographolide) immediately before use. The original cell growth medium within the individual wells of the silicone gasket was removed by pipetting and replaced with approximately 250 μL of a cell growth medium supplemented with a specific compound. FIG. 39A schematically depicts a layout of the cell microarray. […]
The reacted cell microarray was measured by MALDI TOF MS in the linear mid-mass positive mode as described previously. […]

MCF-7 cell line cells [2] = assay: Cell counting (Trypan blue, automated cell counter) on composite microbead-microwell live cell microarray; settings: MCF-7 cells, 24 hours, cell growth medium supplemented with etoposide released from the ion exchange beads; Trypan blue
[3] = as above; settings: human, MCF-7 cells on a microbead-microwell array plate
MCF-7 cells = assay: Difference whole cell mass spectrometry for detection of spectral changes due to apoptosis; format: cell-based, human; settings: 24 hrs incubation, FIG. 35
Protocol: The human breast cancer cell line MCF-7 cells were grown in Gibco® DMEM medium on a 6-well clear polystyrene cell culture plate (BD Falcon). The cells were grown according to the manufacturer's protocol to approximately 75% confluency. At this point several apoptosis-inducing compounds were added to the individual wells and the cells were further incubated for 24 hrs. Both live adherent cells and dead cells detached from the surface were collected from the individual wells of the cell culture plate and the cell viability count was performed on Countless® automated cell counter (Life Technologies) per manufacturer's protocol.
The cells for WCMS analysis were prepared as described in the previous examples. The cell concentration was approximately 1,000 cells per μL.
Whole cell MALDI TOF MS spectra were acquired from the control (untreated) and treated cell populations using instrument parameters described in the previous examples. […] The bottom spectrum represents a difference mass spectrum produced by subtracting the control spectrum from the Etoposide-treated spectrum.

MCF-7 cell line cells [4] = assay: Optical imaging of cell density and morphology on composite microbead-microwell live cell microarray; format: cell-based, human; settings: MCF-7 cells, 24 hours, optical microscope, FIG. 41A/41B
Source text: In this Example, the release of etoposide from the beads into the cell culture medium occurred primarily via diffusion mechanism, although other methods, such as photorelease of active compounds from individual beads may be also utilized due to the fact that the solid support used for the microarray fabrication is sufficiently transparent in the UV-visible range.
Optical imaging: the multi-well gasket was separated from the microwell array plate, the surface of the plate rinsed with 1×PBS buffer and the microwell plate was imaged using an optical microscope to determine the cell density and cell morphology. A representative image acquired from an area of the microwell plate, which contained the cells exposed to the drug-free DMEM medium, is shown in FIG. 41A. A representative image acquired from an area of the microwell plate, which contained the cells exposed to the etoposide-containing DMEM medium, is shown in FIG. 41B.

Structure (SMILES) | intensity of peaks in the 7,891-7,977 m/z spectral region compared to untreated cells (MCF-7 cell line cells [1]) | live cells (MCF-7 cell line cells [2]) | total cells (MCF-7 cell line cells [2]) | viability at 24 h [3] | difference mass spectrum, treated minus control (MCF-7 cells) | density of adherent cells, drug-free vs etoposide-containing DMEM medium (MCF-7 cell line cells [4])
CC[C@@]1(O)C(=O)OCc2c1cc1n(c2=O)Cc2cc3ccccc3nc2-1 [camptothecin] | significantly greater intensity |  |  |  |  | 
C=C1CC[C@@H]2[C@](C)(CO)[C@H](O)CC[C@@]2(C)[C@@H]1C/C=C1/C(=O)OC[C@H]1O [andrographolide] | significantly greater intensity |  |  |  |  | 
COc1cc([C@@H]2c3cc4c(cc3[C@@H](O[C@@H]3O[C@@H]5CO[C@@H](C)O[C@H]5[C@H](O)[C@H]3O)[C@H]3COC(=O)[C@H]23)OCO4)cc(OC)c1O [etoposide] | significantly greater intensity | 2.1×10^5 | 4.7×10^5 | 44% | reveals multiple spectral features | significantly greater density of adherent cells was observed for the cells grown in the drug-free medium
